The test system of one experiment is HCT116 MTAP null cells. Kind of experiment: HCT116 MTAP null cell line proliferation / cell viability (CellTiter-Glo, 6 days). Type of experiment: cell-based. The note with it: 144 h; HCT116 MTAP null cells, 6 days treatment, CellTiter-Glo cell viability; read-out: HCT-116 MTAP null IC50. Put shortly: (§1)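 Isogenic HCT116 parent and MTAP-knockout cells in RPMI 1640 + 10% FBS, plated overnight, then exposed to compound for 6 days (37 °C, 5% CO2). Viability by CellTiter-Glo luminescence. Dilutions: 8–9 points from 1 or 10 μM (1:3), or 22 points from 10 or 50 μM (1:2); IC50 by 4-parameter or Hill −1 fit.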

A further experiment has as its system HCT116 WT cells. Kind of experiment: HCT116 WT (parent) cell line proliferation / cell viability (CellTiter-Glo, 6 days). Type of experiment: cell-based. The note with it: Homo sapiens, HCT-116, 144 h, 6 days treatment. Put shortly: as §1
Background: ATP-based viability assays read luminescence as a measure of living cells.

A word on the IC50: it is the point on the concentration scale where inhibition reaches its midpoint.

`Cc1n[nH]c2c1c(N)nc1cnc(C(=O)N(C)[C@@H]3COCc4nc(C(F)(F)F)ccc43)cc12` [Example 310, 4-amino-N,3-dimethyl-N-((5S)-2-(trifluoromethyl)-5,8-dihydro-6H-pyrano[3,4-b]pyridin-5-yl)-1H-pyrazolo-[4,3-c][1,7]naphthyridine-8-carboxamide]: the IC50 was determined as 110 nM with HCT116 MTAP null cells and 7.38 µM with HCT116 WT cells.

With `Cc1nn(C)c2c1c(N)nc1cnc(C(=O)N(C)[C@@H]3COCc4cc(C(F)(F)F)ccc43)cc12` [Example 311, 4-amino-N,1,3-trimethyl-N-((4S)-7-(trifluoromethyl)-3,4-dihydro-1H-2-benzopyran-4-yl)-1H-pyrazolo[4,3-c][1,7]-naphthyridine-8-carboxamide], the IC50 with HCT116 MTAP null cells was 30 nM; in the experiment with HCT116 WT cells it was 1.02 µM.

`Cc1nn(C)c2c1c(N)nc1cnc(C(=O)N(C)[C@@H]3COCc4nc(C(F)(F)F)ccc43)cc12` [Example 312, 4-amino-N,1,3-trimethyl-N-((5S)-2-(trifluoromethyl)-5,8-dihydro-6H-pyrano[3,4-b]-pyridin-5-yl)-1H-pyrazolo-[4,3-c][1,7]naphthyridine-8-carboxamide]: the IC50 came out at 103 nM in the experiment with HCT116 MTAP null cells and 9.48 µM in the experiment with HCT116 WT cells.

Turning to `Cc1nn(C)c2c1c(N)nc1cc(F)c(C(=O)N(C)[C@@H]3COCc4cc(C(F)(F)F)ccc43)cc12` [Example 313, 4-amino-7-fluoro-N,1,3-trimeth-yl-N-((4S)-7-(trifluoromethyl)-3,4-dihydro-1H-2-benzopyran-4-yl)-1H-pyrazolo[4,3-c]quin-oline-8-carboxamide], the half-inhibitory concentration (IC50) with HCT116 MTAP null cells is 14 nM; in the experiment with HCT116 WT cells it was 0.523 µM.

Turning to `Cc1nn(C)c2c1c(N)nc1cc(F)c(C(=O)N(C)[C@@H]3COCc4nc(C(F)(F)F)ccc43)cc12` [Example 314, 4-amino-7-fluoro-N,1,3-trimeth-yl-N-((5S)-2-(trifluoromethyl)-5,8-dihydro-6H-pyrano[3,4-b]-pyridin-5-yl)-1H-pyrazolo[4,3-c]quinoline-8-carboxamide], the IC50 stood at 41 nM with HCT116 MTAP null cells and 2.63 µM in the experiment on HCT116 WT cells.

Turning to `CN(C(=O)c1ccc2nc(N)c(I)cc2c1)[C@@H]1COCc2nc(C(F)(F)F)ccc21` [Example 315, 2-amino-3-iodo-N-methyl-N-((5S)-2-(trifluoromethyl)-5,8-dihydro-6H-pyrano[3,4-b]pyridin-5-yl)-6-quinoline-carboxamide], the IC50 in the experiment with HCT116 MTAP null cells came to 508 nM; in the experiment with HCT116 WT cells, 13.4 µM.

As to `Cc1cc2nc(N)c3cnn(C)c3c2cc1C(=O)N(C)C1CCOCc2nc(C(F)(F)F)ccc21` [Example 316, 4-amino-N,1,7-trimethyl-N-(5R)-2-(trifluoromethyl)-5,6,7,9-tetrahydrooxepino[3,4-b]pyridin-5-yl)-1H-pyrazolo-[4,3-c]quinoline-8-carboxamide and 4-amino-N,1,7-trimethyl-N-((5S)-2-(trifluoromethyl)-5,6,7,9-tetrahydrooxepino[3,4-b]pyridin-5-yl)-1H-pyrazolo-[4,3-c]quinoline-8-carboxamide], the IC50 in the experiment on HCT116 MTAP null cells turned out to be 26 nM; in the experiment with HCT116 WT cells, 1.72 µM.

`Nc1nc2cc(Cl)c(C(=O)N(C3CC3)[C@@H]3COc4cc(C(F)(F)F)ccc43)cc2c2c1COC2` [Example 442, (S)-4-amino-7-chloro-N-cyclopropyl-N-(6-(trifluoromethyl)-2,3-dihydrobenzofuran-3-yl)-1,3-dihydrofuro[3,4-c]quinoline-8-carboxamide]: the IC50 in the experiment on HCT116 MTAP null cells is 9 nM; with HCT116 WT cells, 0.2 µM.

Regarding `Nc1nc2cc(Cl)c(C(=O)N(C3CC3)[C@H]3COc4cc(C(F)(F)F)ccc43)cc2c2c1COC2` [Example 443, 4-amino-7-chloro-N-cyclopropyl-N-((3R)-6-(trifluoromethyl)-2,3-dihydro-1-benzofuran-3-yl)-1,3-dihydrofuro[3,4-c]quinoline-8-carboxamide], the IC50 in the experiment with HCT116 MTAP null cells came out at 433 nM; with HCT116 WT cells, 3.46 µM.

Turning to `CN(C(=O)c1ccc2nc(N)c3c(c2c1)COC3)[C@@H]1COc2cc(S(C)(=N)=O)ccc21` (stereo partly drawn) [Example 446, 4-amino-N-methyl-N-((3S)-6-(S-methylsulfonimidoyl)-2,3-dihydro-1-benzofuran-3-yl)-1,3-dihydrofuro[3,4-c]quinoline-8-carboxamide], the IC50 turned out to be 864 nM in the experiment on HCT116 MTAP null cells and 36 µM in the experiment with HCT116 WT cells.

Turning to `Nc1nc2ccc(C(=O)N(C3CC3)[C@@H]3COc4cc(C(F)(F)F)ccc43)cc2c2c1COC2` [Example 448, 4-amino-N-cyclopropyl-N-((3S)-6-(trifluoromethyl)-2,3-dihydro-1-benzofuran-3-yl)-1,3-dihydrofuro[3,4-c]quinoline-8-carboxamide], the values for the IC50 in the experiment with HCT116 MTAP null cells and in the experiment on HCT116 WT cells were 58 nM and 3.71 µM, respectively.

Consider `CCN(C(=O)c1ccc2nc(N)c3c(c2c1)COC3)c1coc2cc(C(F)(F)F)ccc12` [Example 451, 4-amino-N-ethyl-N-(6-(trifluoromethyl)-1-benzofuran-3-yl)-1,3-dihydrofuro[3,4-c]quinoline-8-carboxamide], for which the IC50 with HCT116 MTAP null cells worked out at 5180 nM; with HCT116 WT cells it was 9.52 µM.

On to `CN(C(=O)c1cc2c3c(c(N)nc2cn1)COC3)[C@@H]1COc2cc(F)c(F)cc21` [Example 452, 4-amino-N-((3S)-5,6-difluoro-2,3-dihydro-1-benzofuran-3-yl)-N-methyl-1,3-dihydrofuro[3,4-c][1,7]naphthyridine-8-carboxamide], for which the half-inhibitory concentration (IC50) with HCT116 MTAP null cells stood at 173 nM; in the experiment on HCT116 WT cells, 13.4 µM.

Turning to `CN(C(=O)c1cc2c3c(c(N)nc2cn1)COC3)[C@@H]1COc2cc(-c3cnn(C(F)(F)F)c3)ccc21` [Example 457, 4-amino-N-methyl-N-((3S)-6-(1-(trifluoromethyl)-1H-pyrazol-4-yl)-2,3-dihydro-1-benzofuran-3-yl)-1,3-dihydrofuro[3,4-c][1,7]naphthyridine-8-carboxamide], the figures for the IC50 in the experiment with HCT116 MTAP null cells and in the experiment on HCT116 WT cells were 63 nM and 3.77 µM, respectively.

Take `CN(C(=O)c1cc2c3c(c(N)nc2cc1F)COC3)[C@@H]1COc2cc(S(C)(=N)=O)ccc21` (stereo partly drawn) [Example 462, 4-amino-7-fluoro-N-methyl-N-((3S)-6-(S-methylsulfonimidoyl)-2,3-dihydro-1-benzofuran-3-yl)-1,3-dihydrofuro[3,4-c]quinoline-8-carboxamide]: the IC50 was found to be 237 nM in the experiment with HCT116 MTAP null cells and 11.7 µM in the experiment with HCT116 WT cells.

For the molecule `C[C@H]1OCc2c1c(N)nc1cc(F)c(C(=O)N(C)[C@@H]3COc4cc(C(F)(F)F)ccc43)cc21` [Example 466, (3R)-4-amino-7-fluoro-N,3-dimethyl-N-((3S)-6-(trifluoromethyl)-2,3-dihydro-1-benzofuran-3-yl)-1,3-dihydrofuro[3,4-c]quinoline-8-carboxamide], the IC50 stood at 9 nM in the experiment with HCT116 MTAP null cells and 0.245 µM with HCT116 WT cells.

On to `C[C@H]1OCc2c1c(N)nc1cc(F)c(C(=O)N(C3CC3)[C@@H]3COc4cc(C(F)(F)F)ccc43)cc21` [Example 467, (3R)-4-amino-N-cyclopropyl-7-fluoro-3-methyl-N-((3S)-6-(trifluoromethyl)-2,3-dihydro-1-benzofuran-3-yl)-1,3-dihydrofuro[3,4-c]quinoline-8-carboxamide], for which the IC50 in the experiment with HCT116 MTAP null cells stood at 10 nM; in the experiment with HCT116 WT cells, 0.418 µM.

On to `CC(C)N(C(=O)c1cc2c3c(c(N)nc2cc1F)[C@@H](C)OC3)[C@@H]1COc2cc(C(F)(F)F)ccc21` [Example 468, (3R)-4-amino-7-fluoro-3-methyl-N-(2-propanyl)-N-((3S)-6-(trifluoromethyl)-2,3-dihydro-1-benzofuran-3-yl)-1,3-dihydrofuro[3,4-c]quinoline-8-carboxamide], for which the IC50 in the experiment with HCT116 MTAP null cells worked out at 114 nM; in the experiment on HCT116 WT cells, 2.69 µM.

As to `CC(C)N(C(=O)c1cc2c3c(c(N)nc2cc1F)[C@@H](C)OC3)[C@H]1COc2cc(C(F)(F)F)ccc21` [Example 469, (3R)-4-amino-7-fluoro-3-methyl-N-(2-propanyl)-N-((3R)-6-(trifluoromethyl)-2,3-dihydro-1-benzofuran-3-yl)-1,3-dihydrofuro[3,4-c]quinoline-8-carboxamide], the IC50 in the experiment with HCT116 MTAP null cells came to 2730 nM; in the experiment with HCT116 WT cells, 19.7 µM.

Turning to `C[C@H]1OCc2c1c(N)nc1cc(F)c(C(=O)N(C3CCC3)[C@@H]3COc4cc(C(F)(F)F)ccc43)cc21` [Example 470, (3R)-4-amino-N-cyclobutyl-7-fluoro-3-methyl-N-((3S)-6-(trifluoromethyl)-2,3-dihydro-1-benzofuran-3-yl)-1,3-dihydrofuro[3,4-c]quinoline-8-carboxamide], the IC50 in the experiment on HCT116 MTAP null cells was 27 nM; with HCT116 WT cells, 0.256 µM.

For `C[C@H]1OCc2c1c(N)nc1cc(F)c(C(=O)N(C3CCC3)[C@H]3COc4cc(C(F)(F)F)ccc43)cc21` [Example 471, (3R)-4-amino-N-cyclobutyl-7-fluoro-3-methyl-N-((3R)-6-(trifluoromethyl)-2,3-dihydro-1-benzofuran-3-yl)-1,3-dihydrofuro[3,4-c]quinoline-8-carboxamide], the IC50 in the experiment with HCT116 MTAP null cells turned out to be 574 nM; in the experiment with HCT116 WT cells it was 13.9 µM.

For `CN(C(=O)c1ccc2nc(N)c3cnn(C)c3c2c1)[C@@H]1COc2cc(C(F)(F)F)ccc21` [Example 473, 4-amino-N,1-dimethyl-N-((3S)-6-(trifluoromethyl)-2,3-dihydro-1-benzofuran-3-yl)-1H-pyrazolo[4,3-c]quinoline-8-carboxamide], the IC50 in the experiment on HCT116 MTAP null cells was 15 nM; in the experiment with HCT116 WT cells, 0.349 µM.

Regarding `CN(C(=O)c1cc2c(cn1)nc(N)c1cnn(C)c12)[C@@H]1COc2cc(Cl)c(Cl)cc21` [Example 474, 4-amino-N-((3S)-5,6-dichloro-2,3-dihydro-1-benzofuran-3-yl)-N,1-dimethyl-1H-pyrazolo[4,3-c][1,7]naphthyridine-8-carboxamide], the IC50 in the experiment on HCT116 MTAP null cells was 8 nM; with HCT116 WT cells it was 0.174 µM.

These data come from patent US20240124442A1, “TRICYCLIC-AMIDO-BICYCLIC PRMT5 INHIBITORS” (AMGEN INC., priority 2021, published 2024).
